Measurements published in patent publication US20030180294A1, “Methods of extending corneal graft survival” (priority 2002, published 2003).

How the values were obtained:
[1] = test system: corneal transplants in the Lewis/Wistar-Furth combination; assay: rat model of keratoplasty, corneal graft survival; assay type: in vivo; conditions: Lewis cornea to Wistar-Furth recipient, systemic 0.5 to 200 mg/kg/day or eye drop 0.05% to 5.0%, versus vehicle (rejection on average at day 30)
Method: Grafts are prepared and transferred according to the well-characterized rat model of keratoplasty with transplantation of corneas from Lewis strain rats to Wistar-Furth recipients (Callanan et al., Transplantation 45:437-443 (1988)). Each treatment group administered vehicle or test agent includes nine to fourteen rats. Grafts are observed clinically and scored three times per week for signs of rejection according to the criteria in Callanan et al., supra, 1988. Day 60 following surgery represents a two-fold prolongation in the expected mean survival time for corneal transplants in the Lewis/Wistar-Furth combination and therefore is selected as an advantageous time for terminating treatment. Rats bearing grafts not rejected by day 60 are observed for an additional 14 days to determine if the host's immune system has been tolerized. At this time, 80% of the grafted eyes are snap frozen for cryostat sectioning, and the remaining 20% of the eyes are fixed in formalin for H & E staining.
The VEGFR-3 tyrosine kinase inhibitor MAE87, MAE106 or MAZ51 is administered systemically at various concentrations, ranging from 0.5 to 200 mg/kg/day. In other animals, the compound is administered as an eye drop solution in various concentrations ranging from 0.05% to 5.0% and administered as various frequencies (once per day, two times per day and three times per day).

[2] = target: VEGFR-3 (Homo sapiens, UniProt P35916); conditions: VEGF-C and VEGF-D induced; cited from earlier work
Chain of VEGFR-3 (P35916 25-1363, species assumed): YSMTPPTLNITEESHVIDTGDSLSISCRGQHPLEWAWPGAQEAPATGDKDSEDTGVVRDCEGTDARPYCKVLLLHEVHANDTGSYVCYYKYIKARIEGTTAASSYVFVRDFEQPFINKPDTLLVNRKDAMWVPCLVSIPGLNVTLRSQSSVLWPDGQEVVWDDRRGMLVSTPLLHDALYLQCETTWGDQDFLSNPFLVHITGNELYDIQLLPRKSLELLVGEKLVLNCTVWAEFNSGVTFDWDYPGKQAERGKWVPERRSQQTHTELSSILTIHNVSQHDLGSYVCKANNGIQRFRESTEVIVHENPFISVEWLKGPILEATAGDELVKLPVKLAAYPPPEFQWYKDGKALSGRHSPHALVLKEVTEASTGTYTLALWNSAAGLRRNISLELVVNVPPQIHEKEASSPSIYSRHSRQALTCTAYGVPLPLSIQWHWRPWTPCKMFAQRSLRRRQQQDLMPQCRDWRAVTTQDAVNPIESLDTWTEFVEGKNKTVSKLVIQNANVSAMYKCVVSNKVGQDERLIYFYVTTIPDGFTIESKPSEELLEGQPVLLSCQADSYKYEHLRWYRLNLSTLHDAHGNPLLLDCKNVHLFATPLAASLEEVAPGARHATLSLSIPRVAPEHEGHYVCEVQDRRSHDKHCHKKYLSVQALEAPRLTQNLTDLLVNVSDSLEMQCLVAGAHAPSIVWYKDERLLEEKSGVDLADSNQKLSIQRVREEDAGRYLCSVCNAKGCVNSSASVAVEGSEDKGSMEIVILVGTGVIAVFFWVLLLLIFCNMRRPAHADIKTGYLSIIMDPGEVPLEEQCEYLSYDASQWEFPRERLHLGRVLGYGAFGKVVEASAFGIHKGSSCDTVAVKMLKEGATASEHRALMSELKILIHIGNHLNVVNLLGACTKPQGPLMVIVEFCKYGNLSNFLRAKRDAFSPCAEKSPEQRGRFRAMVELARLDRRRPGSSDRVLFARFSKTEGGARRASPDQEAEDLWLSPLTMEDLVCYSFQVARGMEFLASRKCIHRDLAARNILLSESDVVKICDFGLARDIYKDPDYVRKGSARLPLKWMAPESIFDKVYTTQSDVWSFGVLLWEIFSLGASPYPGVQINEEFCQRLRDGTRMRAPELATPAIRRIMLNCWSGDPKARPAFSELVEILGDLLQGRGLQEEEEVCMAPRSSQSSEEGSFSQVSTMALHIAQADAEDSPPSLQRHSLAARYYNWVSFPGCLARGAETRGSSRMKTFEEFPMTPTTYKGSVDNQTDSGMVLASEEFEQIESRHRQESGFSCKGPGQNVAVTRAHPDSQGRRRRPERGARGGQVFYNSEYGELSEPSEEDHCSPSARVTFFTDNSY

| Compound | mean graft survival (delay in evidence of graft rejection) [1] | VEGFR-3 kinase activity versus VEGFR-2 (specificity) [2] |
| --- | --- | --- |
| O=C1Nc2ccccc2C1=Cc1ccc(O)cc1O [MAE87, 3(2,4-dihydroxy-benzylidene)-1,3-dihydro-indol-2-one] | increased mean graft survival |  |
| CN(C)c1ccc(C=C2C(=O)Nc3ccccc32)c2ccccc12 [MAZ51, 3-(4-dimethylamino-naphthalen-1-ylmethylene)-1,3-dihydro-indol-2-one] | increased mean graft survival | differentially block VEGF-C and VEGF-D induced VEGFR-3 kinase activity compared to that of VEGFR-2 |
| COc1ccc(C=C2C(=O)Nc3ccccc32)cc1F [MAE106, 3-(3-fluoro-4-methoxy-benzylidene)-1,3-dihydro-indol-2-one] | increased mean graft survival | differentially block VEGF-C and VEGF-D induced VEGFR-3 kinase activity compared to that of VEGFR-2 |
